Assay results from patent US9550782B2, “Compounds and methods for treating diabetes” (Medivation Technologies, Inc., priority 2011, dated 2017).
Like-named read-outs stand apart in the source and are kept apart here.

How the values were obtained:
[1] = target: T1, human recombinant adrenergic α2B receptor (Homo sapiens, UniProt P18089); experiment: Radioligand binding, adrenergic α2B ([3H]Rauwolscine); conditions: for Percentage inhibition of ligand binding, Adrenergic α2B (0.03 μM): compound at 0.03 μM, repeat datapoints each shown
T1 construct: expressed in transfected cells; host or cells: CHO-K1
T1 sequence (P18089 1-450): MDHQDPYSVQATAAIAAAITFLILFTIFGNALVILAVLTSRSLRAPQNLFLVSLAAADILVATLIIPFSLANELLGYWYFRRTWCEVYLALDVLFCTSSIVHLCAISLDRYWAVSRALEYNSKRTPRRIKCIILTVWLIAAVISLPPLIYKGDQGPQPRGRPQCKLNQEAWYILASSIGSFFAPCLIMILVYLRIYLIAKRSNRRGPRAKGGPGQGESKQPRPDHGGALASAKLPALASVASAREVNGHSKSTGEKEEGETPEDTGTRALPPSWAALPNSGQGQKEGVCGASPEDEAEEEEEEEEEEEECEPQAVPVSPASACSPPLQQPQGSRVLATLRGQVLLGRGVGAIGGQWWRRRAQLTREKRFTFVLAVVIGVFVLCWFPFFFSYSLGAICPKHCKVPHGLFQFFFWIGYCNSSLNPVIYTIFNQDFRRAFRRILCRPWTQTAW
Procedure, shortened: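 Receptor expressed in CHO-K1 cells, assayed in 50 mM Tris-HCl pH 7.4 with 12.5 mM MgCl2, 1 mM EDTA and 0.2% BSA. Compounds were incubated with 2.5 nM [3H]Rauwolscine for 60 min at 25° C; 10 μM Prazosin defined non-specific binding. Filter counting gave percent inhibition of specific binding.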

[2] = target: T2, rat adrenergic α1B receptor (Rattus norvegicus, UniProt P15823); experiment: Radioligand binding, adrenergic α1B ([3H]Prazosin); design: species or system Wistar Rat; conditions: for Percentage inhibition of ligand binding, Adrenergic α1B (0.1 μM): compound at 0.1 μM, repeat datapoints each shown
T2 construct: rat adrenergic α1B receptor obtained from Wistar Rat liver; from tissue; host or cells: Wistar rat liver
T2 sequence (P15823 1-515): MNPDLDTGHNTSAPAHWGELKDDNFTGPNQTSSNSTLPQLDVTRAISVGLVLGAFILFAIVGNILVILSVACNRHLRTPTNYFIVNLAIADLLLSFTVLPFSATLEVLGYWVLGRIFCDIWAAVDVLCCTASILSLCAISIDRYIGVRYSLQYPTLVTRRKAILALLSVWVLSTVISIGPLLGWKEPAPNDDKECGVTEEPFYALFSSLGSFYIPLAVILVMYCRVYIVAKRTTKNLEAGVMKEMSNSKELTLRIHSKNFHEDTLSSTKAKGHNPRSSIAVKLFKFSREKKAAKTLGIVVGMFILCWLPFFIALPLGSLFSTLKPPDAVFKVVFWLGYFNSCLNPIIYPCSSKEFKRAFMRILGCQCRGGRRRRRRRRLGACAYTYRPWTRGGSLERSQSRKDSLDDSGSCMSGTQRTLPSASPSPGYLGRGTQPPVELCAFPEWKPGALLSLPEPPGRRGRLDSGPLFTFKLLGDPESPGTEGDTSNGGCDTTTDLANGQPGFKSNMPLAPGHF
Procedure, shortened: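 Incubation ran 60 min at 25 °C in Tris-HCl buffer (50 mM, pH 7.4, 0.5 mM EDTA) with Wistar rat liver α1B receptor. 10 μM phentolamine set non-specific binding.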

[3] = target: T3, human recombinant adrenergic α2A receptor (Homo sapiens, UniProt P08913); experiment: Radioligand binding, adrenergic α2A ([3H]MK-912); conditions: [3H]MK-912; for Percentage inhibition of ligand binding, Adrenergic α2A (0.1 μM): compound at 0.1 μM
T3 construct: expressed in transfected cells; host or cells: insect Sf9 cells
T3 sequence (P08913 1-465): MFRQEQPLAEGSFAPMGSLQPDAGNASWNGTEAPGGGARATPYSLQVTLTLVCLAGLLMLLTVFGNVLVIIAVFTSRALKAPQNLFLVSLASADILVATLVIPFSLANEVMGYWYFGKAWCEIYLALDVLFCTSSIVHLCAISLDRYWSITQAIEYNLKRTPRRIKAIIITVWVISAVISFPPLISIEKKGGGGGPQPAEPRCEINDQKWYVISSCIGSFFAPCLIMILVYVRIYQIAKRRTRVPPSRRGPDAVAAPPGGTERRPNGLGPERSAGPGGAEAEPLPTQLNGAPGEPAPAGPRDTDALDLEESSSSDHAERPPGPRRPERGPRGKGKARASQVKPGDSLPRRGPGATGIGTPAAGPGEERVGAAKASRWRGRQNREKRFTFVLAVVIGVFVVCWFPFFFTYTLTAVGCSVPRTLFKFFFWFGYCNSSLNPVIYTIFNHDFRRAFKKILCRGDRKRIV
Procedure, shortened: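 Receptor expressed in insect Sf9 cells, assayed in 50 mM Tris-HCl pH 7.4 with 12.5 mM MgCl2 and 2 mM EDTA. Compounds incubated with 1 nM [3H]MK-912 for 60 min at 25 °C; nonspecific binding defined with 10 μM WB-4101. Filter-bound radioactivity counted; values are percent inhibition of specific binding.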

[4] = repeat datapoints each shown, 0.1 µM

## Cc1ccc2c(c1)c1c(n2CC(C)(O)c2cccnc2)CN(C)CC1 (stereo not drawn) [14b, 1-(2,6-dimethyl-1,2,3,4-tetrahydro-3-carbolin-9-yl)-2-pyridin-3-yl-propan-2-ol]
[1]; 0.03 µM
  Percentage inhibition of ligand binding, Adrenergic α2B (0.03 μM): 14%
[2]; 0.1 µM
  Percentage inhibition of ligand binding, Adrenergic α1B (0.1 μM): 25%
[3]; [4]
  Percentage inhibition of ligand binding, Adrenergic α2A (0.1 μM): −6%

## Cc1ccc2c(c1)c1c(n2CC(C)(O)c2ccc(C)nc2)CCN(C)C1 (stereo not drawn) [29b]
[1]; 0.03 µM
  Percentage inhibition of ligand binding, Adrenergic α2B (0.03 μM): 46%
[2]; 0.1 µM
  Percentage inhibition of ligand binding, Adrenergic α1B (0.1 μM): 14%
[3]; [4]
  Percentage inhibition of ligand binding, Adrenergic α2A (0.1 μM): 10%

## CN1CCc2c(c3cc(Cl)ccc3n2CC(C)(O)c2cccnc2)C1 (stereo not drawn) [31b]
[1]; 0.03 µM
  Percentage inhibition of ligand binding, Adrenergic α2B (0.03 μM): 36%
[2]; 0.1 µM
  Percentage inhibition of ligand binding, Adrenergic α1B (0.1 μM): 3%
[3]; [4]
  Percentage inhibition of ligand binding, Adrenergic α2A (0.1 μM): 14%

## Cc1cnc2c(c1)c1c(n2CCc2ccc(C)nc2)CCN2CCCC12 (stereo not drawn) [74b, 10-methyl-7-(2-(6-methylpyridin-3-yl)ethyl)-2,3,5,6,7,1c-hexahydro-1H-pyrido[3′,2′:4,5]pyrrolo[2,3-g]indolizine]
[1]; 0.03 µM
  Percentage inhibition of ligand binding, Adrenergic α2B (0.03 μM): 27%
[2]; 0.1 µM
  Percentage inhibition of ligand binding, Adrenergic α1B (0.1 μM): 28%
[3]; [4]
  Percentage inhibition of ligand binding, Adrenergic α2A (0.1 μM): 14%

## Cc1ccc2c(c1)c1c(n2C(C)C(O)c2ccncc2)CCN(C)C1 (stereo not drawn) [127b]
[1]; 0.03 μM compound, 0.03 µM
  Percentage inhibition of ligand binding, Adrenergic α2B: 1%
[2]; 0.1 μM compound
  Percentage inhibition of ligand binding, Adrenergic α1B: 13%
[3]; 0.1 μM compound
  Percentage inhibition of ligand binding, Adrenergic α2A: 4%

## Cc1ccc2c(c1)c1c(n2CC(C)(O)c2cccnc2)CNCC1 (stereo not drawn) [128b]
[1]; 0.03 μM compound, 0.03 µM
  Percentage inhibition of ligand binding, Adrenergic α2B: 54%
[2]; 0.1 μM compound, 0.1 µM
  Percentage inhibition of ligand binding, Adrenergic α1B: 45%
[3]; 0.1 μM compound, 0.1 µM
  Percentage inhibition of ligand binding, Adrenergic α2A: 22%

## Cc1ccc2c(c1)c1c(n2CC(O)c2ccncc2C)CCN(C)C1 (stereo not drawn) [133a]
[1]; 0.03 μM compound, 0.03 µM
  Percentage inhibition of ligand binding, Adrenergic α2B: 52%
[2]; 0.1 μM compound, 0.1 µM
  Percentage inhibition of ligand binding, Adrenergic α1B: 57%
[3]; 0.1 μM compound, 0.1 µM
  Percentage inhibition of ligand binding, Adrenergic α2A: 13%

## Cc1ccc2c(c1)c1c(n2CC(O)c2cn[nH]c2)CCN(C)C1 (stereo not drawn) [II-106b]
[1]
  Percentage inhibition of ligand binding, Adrenergic α2B (0.03 μM): 36%
[2]
  Percentage inhibition of ligand binding, Adrenergic α1B (0.1 μM): 31%
[3]; repeat datapoints each shown
  Percentage inhibition of ligand binding, Adrenergic α2A (0.1 μM): 8%

## Cc1ccc2c(c1)c1c(n2CC(O)c2ccc(C#N)cc2)CCNC1 (stereo not drawn) [II-116]
[1]; read-out: Percentage inhibition of ligand binding, Adrenergic α2B (0.03 μM), compound at 0.03 μM, repeat datapoints each shown
  inhibition at 0.03 µM: 43%
[2]; read-out: Percentage inhibition of ligand binding, Adrenergic α1B (0.1 μM), compound at 0.1 μM, repeat datapoints each shown
  inhibition at 0.1 µM: 4%
[3]; read-out: Percentage inhibition of ligand binding, Adrenergic α2A (0.1 μM), compound at 0.1 μM, repeat datapoints each shown
  inhibition at 0.1 µM: 3%

## Cc1ccc2c(c1)c1c(n2CC(N)c2ccncc2)CC2CCC1N2C (stereo not drawn) [compound 155]
[1]; 0.03 μM compound, read-out: Percentage inhibition of ligand binding, Adrenergic α2B
  inhibition at 0.03 µM: 36%
[2]; 0.1 μM compound, read-out: Percentage inhibition of ligand binding, Adrenergic α1B
  inhibition at 0.1 µM: 15%
[3]; 0.1 μM compound, read-out: Percentage inhibition of ligand binding, Adrenergic α2A
  inhibition at 0.1 µM: 14%
